Assay [1] concerns the target T1, Acetylcholinesterase (Homo sapiens, UniProt P22303). The experiment in a line: Inhibition of AChE (unknown origin) using acetylthiocholine iodide as substrate by DTNB reagent based Ellman's method.
In another assay the target is Cholinesterase (Homo sapiens, UniProt P06276). The experiment in a line: Inhibition of BuChE (unknown origin) using butyrylthiocholine iodide as substrate by DTNB reagent based Ellman's method.
In assay [2] the target is T1, Acetylcholinesterase. The experiment in a line: Mixed type inhibition of AChE (unknown origin) using acetylthiocholine iodide as substrate by Lineweaver-Burk double reciprocal plot analysis.
For assay [3], the target named is 5-hydroxytryptamine receptor 4 (Homo sapiens) (UniProt Q13639). The experiment in a line: Displacement of [3H]GR113808 from human 5-HT4 receptor expressed in Chem-1 cell membrane incubated for 60 mins by radiometric scintillation counting analysis relative to control. The settings on record: filed as agonist. It is filed as cell membranes.

This note sets out measurements from ChEMBL document CHEMBL5113467, “Design, synthesis and evaluation of 2-(2-oxoethyl)pyrimidine-5-carboxamide derivatives as acetylcholinesterase inhibitors” (Bioorg Med Chem Lett, 2022).

Activity calls are given as the source filed them. The calls are words filed in the database; no cut-off is given here.

T1 sequence (P22303 whole entry): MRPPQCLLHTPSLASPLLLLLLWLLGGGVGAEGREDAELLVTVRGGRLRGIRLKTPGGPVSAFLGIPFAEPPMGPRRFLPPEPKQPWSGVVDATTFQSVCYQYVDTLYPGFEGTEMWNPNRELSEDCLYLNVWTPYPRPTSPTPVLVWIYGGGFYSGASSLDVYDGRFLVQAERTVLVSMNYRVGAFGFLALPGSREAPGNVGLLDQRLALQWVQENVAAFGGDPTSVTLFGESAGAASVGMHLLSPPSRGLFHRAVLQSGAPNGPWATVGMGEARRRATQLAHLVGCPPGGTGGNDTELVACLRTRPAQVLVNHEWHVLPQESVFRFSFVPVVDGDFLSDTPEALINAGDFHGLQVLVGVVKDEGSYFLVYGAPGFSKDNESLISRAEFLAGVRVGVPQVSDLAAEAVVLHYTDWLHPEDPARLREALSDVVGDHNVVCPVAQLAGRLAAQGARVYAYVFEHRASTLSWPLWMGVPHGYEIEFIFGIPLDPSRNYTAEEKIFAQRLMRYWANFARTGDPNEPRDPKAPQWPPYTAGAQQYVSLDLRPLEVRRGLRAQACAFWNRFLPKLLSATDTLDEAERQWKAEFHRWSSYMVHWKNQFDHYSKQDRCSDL
Sequence of Cholinesterase (P06276 whole entry): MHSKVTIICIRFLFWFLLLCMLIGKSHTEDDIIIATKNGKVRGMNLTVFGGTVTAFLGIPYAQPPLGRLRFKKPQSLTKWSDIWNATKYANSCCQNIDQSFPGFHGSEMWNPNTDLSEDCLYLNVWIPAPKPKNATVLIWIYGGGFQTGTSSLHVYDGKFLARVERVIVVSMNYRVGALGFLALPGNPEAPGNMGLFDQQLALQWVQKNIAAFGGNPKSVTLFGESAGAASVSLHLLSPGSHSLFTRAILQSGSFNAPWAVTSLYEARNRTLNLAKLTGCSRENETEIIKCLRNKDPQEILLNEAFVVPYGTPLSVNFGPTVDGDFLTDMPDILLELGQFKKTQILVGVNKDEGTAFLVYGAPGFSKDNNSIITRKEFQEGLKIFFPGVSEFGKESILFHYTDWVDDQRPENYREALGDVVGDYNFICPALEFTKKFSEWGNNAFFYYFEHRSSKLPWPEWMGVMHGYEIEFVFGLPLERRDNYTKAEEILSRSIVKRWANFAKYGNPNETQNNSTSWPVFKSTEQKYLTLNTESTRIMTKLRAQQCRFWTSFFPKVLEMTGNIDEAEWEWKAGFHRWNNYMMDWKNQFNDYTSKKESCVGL
Sequence of 5-hydroxytryptamine receptor 4 (Homo sapiens) (Q13639 whole entry): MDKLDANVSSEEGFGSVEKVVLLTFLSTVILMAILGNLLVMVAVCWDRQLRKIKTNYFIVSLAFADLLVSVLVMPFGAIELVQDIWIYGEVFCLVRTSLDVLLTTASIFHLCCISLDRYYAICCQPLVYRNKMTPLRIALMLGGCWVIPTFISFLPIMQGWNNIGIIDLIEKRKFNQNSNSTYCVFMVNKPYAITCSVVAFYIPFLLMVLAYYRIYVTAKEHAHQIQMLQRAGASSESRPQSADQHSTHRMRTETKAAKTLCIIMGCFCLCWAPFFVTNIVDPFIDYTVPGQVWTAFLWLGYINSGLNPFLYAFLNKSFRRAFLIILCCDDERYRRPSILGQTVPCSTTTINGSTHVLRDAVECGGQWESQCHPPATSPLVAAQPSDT

For the compound `CN(CCCOc1ccc([N+](=O)[O-])cc1)C(=O)c1cnc(CC(=O)c2cccs2)nc1`, the IC50 turned out to be 0.88 µM at Acetylcholinesterase [1] and 10 µM against Cholinesterase. Besides, the inhibition result at Acetylcholinesterase [2] was “Active”.
For the compound `COc1ccc(C(=O)Cc2ncc(C(=O)N(C)CCCOc3ccc([N+](=O)[O-])cc3)cn2)cc1OC`, the IC50 came out at 3.79 µM against Acetylcholinesterase [1] and 5.73 µM at Cholinesterase.
Take `COc1cccc(C(=O)Cc2ncc(C(=O)N(C)CCCOc3ccc([N+](=O)[O-])cc3)cn2)c1`: the IC50 at Acetylcholinesterase [1] turned out to be 4 µM; against Cholinesterase, 2.59 µM.
For `CN(CCCOc1ccc([N+](=O)[O-])cc1)C(=O)c1cnc(CC(=O)c2ccc3c(c2)OCO3)nc1`, the IC50 was found to be 0.99 µM against Acetylcholinesterase [1] and 48.4 µM against Cholinesterase.
Consider `COc1ccc(C(=O)Cc2ncc(C(=O)NC3CCN(Cc4ccccc4)CC3)cn2)cc1`, for which the values for the IC50 against Acetylcholinesterase [1] and at Cholinesterase were 28 µM and 3.7 µM, respectively.
As for `COc1ccc(C(=O)Cc2ncc(C(=O)N3CCN(Cc4ccccc4)CC3)cn2)cc1`, the IC50 at Acetylcholinesterase [1] worked out at 17.3 µM; against Cholinesterase it was 5.7 µM.
On to `CN(CCCOc1ccc([N+](=O)[O-])cc1)C(=O)c1cnc(CC(=O)c2ccccc2)nc1`, for which the IC50 at Acetylcholinesterase [1] was found to be 9.94 µM; against Cholinesterase, 6.08 µM.
With `COc1ccc(C(=O)Cc2ncc(C(=O)NCc3cccs3)cn2)cc1`, the IC50 amounted to 30.7 µM on Acetylcholinesterase [1] and 3.45 µM against Cholinesterase.
With `COc1ccc(C(=O)Cc2ncc(C(=O)N(C)CCCOc3cccc(OC)c3)cn2)cc1`, the values for the IC50 on Acetylcholinesterase [1] and against Cholinesterase were 44.9 µM and 8.36 µM, respectively.
As for `COc1ccc(C(=O)Cc2ncc(C(=O)N(C)CCCOc3ccc(OC)c(OC)c3)cn2)cc1`, the half-maximal inhibitory concentration (IC50) is 29.8 µM against Acetylcholinesterase [1] and 8.3 µM at Cholinesterase.
With `COc1ccc(C(=O)Cc2ncc(C(=O)NCc3ccc(OC)c(OC)c3)cn2)cc1`, the results for the IC50 against Acetylcholinesterase [1] and against Cholinesterase were 10 µM and 30.7 µM, respectively.
For `COc1ccc(C(=O)Cc2ncc(C(=O)N(C)CCCOc3ccc([N+](=O)[O-])cc3)cn2)cc1` the same measures were 4.56 µM and 13.1 µM.
Consider `C/C=C1\[C@H]2C=C(C)C[C@]1(N)c1ccc(=O)[nH]c1C2` [HUPERZINE A], for which, at Cholinesterase, the IC50 was > 10000 µM.
As for `COc1ccc(OCCCN(C)C(=O)c2cnc(CC(=O)c3ccc(OC)cc3)nc2)cc1`, the IC50 at Acetylcholinesterase [1] stood at 9.82 µM; at Cholinesterase it was 9.16 µM.
In the case of `COc1ccc(C(=O)Cc2ncc(C(=O)Nc3ccncc3)cn2)cc1`, the IC50 stood at 17.9 µM against Acetylcholinesterase [1] and 31.4 µM against Cholinesterase.
On to `COc1ccc(C(=O)Cc2ncc(C(=O)N(C)CCCOc3c(F)c(F)c(F)c(F)c3F)cn2)cc1`, for which the 50% inhibitory concentration (IC50) on Acetylcholinesterase [1] turned out to be 5.14 µM; at Cholinesterase it was 28.9 µM.
Regarding `COc1ccc(C(=O)Cc2ncc(C(=O)N(C)CCCOc3ccc(C(F)(F)F)cc3)cn2)cc1`, the IC50 against Acetylcholinesterase [1] is 29.8 µM; against Cholinesterase it was 6.24 µM.
For `CCOc1ccc(C(=O)Cc2ncc(C(=O)N(C)CCCOc3ccc([N+](=O)[O-])cc3)cn2)cc1` the same measures were 6.4 µM and 6.66 µM.
`COc1cc(N)c(Cl)cc1C(=O)CCC1CCN(CC2CCCCC2)CC1` returned an inhibition in assay [3] of 48.3%.
